28 compounds from publication PMC10650850, “Discovery, Structure–Activity Relationship and In Vitro Anticancer Activity of Small-Molecule Inhibitors of the Protein–Protein Interactions between AF9/ENL and AF4 or DOT1L” (Cancers, 2023) can be followed below.

Where a name gives a salt, the structure may show the parent alone.

This experiment deals with T1, AF9-DOT1L interaction (Homo sapiens, UniProt P42568).
T1 construct: human AF9 AHD domain (475–568); made in house; host or cells: E. coli BL21(DE3)
T1 sequence (P42568 475-568): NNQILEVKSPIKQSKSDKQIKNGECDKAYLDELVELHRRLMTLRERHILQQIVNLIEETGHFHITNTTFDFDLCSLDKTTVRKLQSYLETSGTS
The experiment is described as follows: AlphaLisa assay, AF9-DOT1L interaction. The settings on record: for inhibition at 5 µM: compound at 5 μM, read-out: % Inhibition at 5 μM against the AF9-DOT1L interaction. The class given is binding. An excerpt:
An AlphaLisa assay we previously developed was used for compound screening for inhibitors of the AF9-DOT1L interaction. The PPI takes the DOT1L-peptide coated donor beads and AF9 AHD coated acceptor beads together. The donor beads are illuminated with a laser beam (680 nm) to generate singlet oxygen radicals, which activate the adjacent acceptor beads to produce luminescence at 615 nm. When a compound can disrupt such PPI and separate the donor and acceptor beads, the highly unstable radicals are rapidly quenched by water without generating luminescence.
The cDNA for the human AF9 AHD domain (475–568) and ENL AHD domain (489–559) was synthesized (by Genscript, Piscataway, NJ, USA) and inserted into the pMAL c5X expression plasmid. The DOT1L peptide (Biotin-AHX-[…]) and AF4 peptide (Biotin-AHX-[…]) for the Alpha assay were purchased from Genscript.
Alpha assays were developed in our previous publication, using a Perkin-Elmer AlphaLisa anti-MBP kit, which contains streptavidin donor beads and anti-MBP acceptor beads. Briefly, the assay was performed using a MBP-protein (5 nM), a biotinylated peptide (40 nM), and increasing concentrations of a compound in 25 µL buffer (PBS with 0.5% BSA, pH 7.5) in 384-well plates according to the manufacturer’s protocol and measured with a Tecan SPARK microplate reader. Data were imported into Prism (version 5.0), and IC50 values from 3 independent experiments with standard deviation were obtained by using a standard dose-response curve fitting.
Background: In Alpha technology, singlet oxygen from a donor bead excites a nearby acceptor bead.

By inhibition is commonly meant the share of the control response that was lost under treatment. For the compound `O=C(NCC1CCNCC1)c1cc2ccc(-c3ccc(O)cc3)cc2s1` [Compound 46, 6-(4-Hydroxylphenyl)-N-(piperidin-4-ylmethyl)-benzo[b]thiophene-2-carboxamide hydrochloride], the inhibition at 5 µM was found to be 0%.

As to `Cc1ccc(-c2ccc3cc(C(=O)NCC4CCNCC4)sc3c2)cc1` [Compound 47, 6-(4-Methylphenyl)-N-(piperidin-4-ylmethyl)-benzo[b]thiophene-2-carboxamide hydrochloride], the inhibition at 5 µM was 47%.

As for `O=C(NCC1CCNCC1)c1cc2ccc(-c3ccc(Cl)cc3)cc2s1` [Compound 48, 6-(4-Chlorophenyl)-N-(piperidin-4-ylmethyl)-benzo[b]thiophene-2-carboxamide hydrochloride], the inhibition at 5 µM was about 50%.

Turning to `O=C(NCC1CCNCC1)c1cc2ccc(-c3ccc(F)cc3)cc2s1` [Compound 49, 6-(4-Fluorophenyl)-N-(piperidin-4-ylmethyl)-benzo[b]thiophene-2-carboxamide hydrochloride], the inhibition at 5 µM was 21%.

With `O=C(NCC1CCNCC1)c1cc2cc(-c3ccc(C(=O)N4CCCCC4)cc3)ccc2s1` [Compound 51, 5-(4-(Piperidine-1-carbonyl)phenyl)-N-(piperidin-4-ylmethyl)-benzo[b]thiophene-2-carboxamide hydrochloride], the inhibition at 5 µM came out at 31%.

In the case of `O=C(NCC1CCNCC1)c1cc2cc(-c3ccc(C(=O)N4CCCC4)cc3)ccc2s1` [Compound 52], the inhibition at 5 µM was found to be 0%.

For the compound `N#Cc1ccc(-c2ccc3sc(C(=O)NCC4CCNCC4)cc3c2)cc1` [Compound 53, 5-(4-Cyanophenyl)-N-(piperidin-4-ylmethyl)-benzo[b]thiophene-2-carboxamide hydrochloride], the inhibition at 5 µM was 23%.

For the compound `CC(C)(C)c1ccc(-c2ccc3sc(C(=O)NCC4CCNCC4)cc3c2)cc1` [Compound 54, 5-(4-(Tert-butyl)phenyl)-N-(piperidin-4-ylmethyl)-benzo[b]thiophene-2-carboxamide hydrochloride], the inhibition at 5 µM worked out at 33%.

As to `O=C(NCC1CCNCC1)c1cc2cc(Nc3ccc(OC(F)(F)F)cc3)ccc2s1` [Compound 56, 5-((4-(Trifluoromethoxyl)phenyl)amino)-N-(piperidin-4-ylmethyl)-benzo[b]thiophene-2-carboxamide hydrochloride], the inhibition at 5 µM is 24%.

As to `O=C(NCC1CCNCC1)c1cc2ccc(-c3ccc(N4CCOCC4)cc3)cc2o1` [Compound 58, 6-(4-Morpholinophenyl)-N-(piperidin-4-ylmethyl)-benzofuran-2-carboxamide hydrochloride], the inhibition at 5 µM is 40%.

`O=C(NCC1CCNCC1)c1cc2ccc(-c3ccc(N4CCNCC4)cc3)cc2o1` [Compound 59, 6-(4-(Piperazin-1-yl)phenyl)-N-(piperidin-4-ylmethyl)-benzofuran-2-carboxamide hydrochloride]: the inhibition at 5 µM turned out to be 38%.

For `CN1CCN(c2ccc(-c3ccc4cc(C(=O)NCC5CCNCC5)oc4c3)cc2)CC1` [Compound 60, 6-(4-(4-Methylpiperazin-1-yl)phenyl)-N-(piperidin-4-ylmethyl)-benzofuran-2-carboxamide hydrochloride], the inhibition at 5 µM turned out to be 32%.

For the compound `O=C(NCC1CCNCC1)c1cc2ccc(-c3ccc(C4CCCCC4)cc3)cc2o1` [Compound 61, 6-(4-Cyclohexylphenyl)-N-(piperidin-4-ylmethyl)-benzofuran-2-carboxamide hydrochloride], the inhibition at 5 µM was determined as 18%.

`CCN(CC)c1ccc(-c2ccc3cc(C(=O)NCC4CCNCC4)oc3c2)cc1` [Compound 62, 6-(4-(Diethylamino)phenyl)-N-(piperidin-4-ylmethyl)-benzofuran-2-carboxamide hydrochloride]: the inhibition at 5 µM came out at 30%.

On to `O=C(NCC1CCNCC1)c1cc2ccc(-c3ccc(C(=O)N4CCCC4)cc3)cc2o1` [Compound 63, 6-(4-((Pyrrolidine-1-yl)carbonyl)phenyl)-N-(piperidin-4-ylmethyl)-benzofuran-2-carboxamide hydrochloride], for which the inhibition at 5 µM was found to be 1%.

On to `O=C(NCC1CCNCC1)c1cc2ccc(-c3ccc(C(=O)N4CCCCC4)cc3)cc2o1` [Compound 64, 6-(4-((Piperidine-1-yl)carbonyl)phenyl)-N-(piperidin-4-ylmethyl)-benzofuran-2-carboxamide hydrochloride], for which the inhibition at 5 µM amounted to 0%.

As to `O=C(NCC1CCNCC1)c1cc2ccc(-c3ccc(C(=O)N4CCCCCC4)cc3)cc2o1` [Compound 65, 6-(4-((Azepane-1-yl)carbonyl)phenyl)-N-(piperidin-4-ylmethyl)-benzofuran-2-carboxamide hydrochloride], the inhibition at 5 µM came out at 0%.

In the case of `O=C(NCC1CCNCC1)c1cc2ccc(-c3ccc(C(=O)N4CCC(N5CCCCC5)CC4)cc3)cc2o1` [Compound 66, 6-(4-((1,4′-Bipiperidine-1-yl)carbonyl)phenyl)-N-(piperidin-4-ylmethyl)-benzofuran-2-carboxamide hydrochloride], the inhibition at 5 µM amounted to 0%.

Turning to `O=C(NCC1CCNCC1)c1cc2ccc(-c3ccc(-c4ccccc4)cc3)cc2o1` [Compound 67, 6-((1,1′-Biphenyl)-4-yl)-N-(piperidin-4-ylmethyl)-benzofuran-2-carboxamide hydrochloride], the inhibition at 5 µM came out at 0%.

On to `O=C(NCC1CCNCC1)c1cc2ccc(-c3cccc(-c4ccccc4)c3)cc2o1` [Compound 68, 6-((1,1′-Biphenyl)-3-yl)-N-(piperidin-4-ylmethyl)-benzofuran-2-carboxamide hydrochloride], for which the inhibition at 5 µM was found to be 33%.

With `O=C(NCC1CCNCC1)c1cc2ccc(-c3ccc4c(c3)OCCO4)cc2o1` [Compound 69, 6-(2,3-Dihydrobenzo[b][1,4]dioxin-6-yl)-N-(piperidin-4-ylmethyl)-benzofuran-2-carboxamide hydrochloride], the inhibition at 5 µM came out at 33%.

As for `CS(=O)(=O)c1ccc(-c2ccc3cc(C(=O)NCC4CCNCC4)oc3c2)cc1` [Compound 70, 6-(4-(Methylsulfonyl)phenyl)-N-(piperidin-4-ylmethyl)-benzofuran-2-carboxamide hydrochloride], the inhibition at 5 µM was found to be 19%.

`O=C(NCc1ccc(-c2ccc3cc(C(=O)NCC4CCNCC4)oc3c2)cc1)OCc1ccccc1` [Compound 71, 6-(4-(Benzyloxycarbonylaminomethyl)phenyl)-N-(piperidin-4-ylmethyl)-benzofuran-2-carboxamide hydrochloride]: the inhibition at 5 µM amounted to 27%.

As for `N#Cc1ccc(-c2ccc3cc(C(=O)NCC4CCNCC4)oc3c2)cc1` [Compound 73, 6-(4-Cyanophenyl)-N-(piperidin-4-ylmethyl)-benzofuran-2-carboxamide hydrochloride], the inhibition at 5 µM amounted to 15%.

A word on the IC50: it is the concentration needed to halve the response being measured. In the case of `O=C(NCC1CCNCC1)c1cc2ccc(Nc3ccc(N4CCCCC4)cc3)cc2o1` [Compound 74, 6-((4-(Piperidin-1-yl)phenyl)amino)-N-(piperidin-4-ylmethyl)-benzofuran-2-carboxamide hydrochloride], under “MBP-protein 5 nM, biotinylated peptide 40 nM, 3 independent experiments with standard deviation, read-out: IC50 (μM) against the AF9-DOT1L interaction”, the IC50 was 4.6 ± 0.3 µM.

Consider `O=C(NCC1CCNCC1)c1cc2ccc(Nc3ccc(OC(F)(F)F)cc3)cc2o1` [Compound 75, 6-((4-Trifuluoromethoxyl)phenyl)amino)-N-(piperidin-4-ylmethyl)-benzofuran-2-carboxamide hydrochloride], for which the inhibition at 5 µM came out at 23%.

For the compound `COc1ccc(Oc2ccc3cc(C(=O)NCC4CCNCC4)oc3c2)cc1` [Compound 76, 6-(4-Methoxylphenoxyl)-N-(piperidin-4-ylmethyl)-benzofuran-2-carboxamide hydrochloride], the inhibition at 5 µM came to 24%.

As to `O=C(NCC1CCNCC1)c1cc2ccc(Oc3ccc(Oc4ccc(Cl)cc4)cc3)cc2o1` [Compound 77, 6-(4-(4-Cholorophenoxyl)phenoxyl)-N-(piperidin-4-ylmethyl)-benzofuran-2-carboxamide hydrochloride], the inhibition at 5 µM was determined as 20%.
